Data published in US20240075036A1, “THERAPEUTIC COMBINATIONS INCLUDING INHIBITORS OF THE P2X4 RECEPTOR FOR TREATING AND PREVENTING PROLIFERATIVE DISORDERS” (CHEMOTHERAPEUTISCHES FORSCHUNGSINSTITUT GEORG-SPEYER-HAUS, priority 2021, published 2024).
Residues, ends and D or L forms follow the SMILES beside them. *: point of attachment. Cbz = O=C(OCc1ccccc1)*; CH2F = FC*

Assays:
[1] = system: S6 ribosomal protein phosphorylation, DNA damage and apoptosis markers
APTAK tumor organoids = test: APTAK tumor organoids: S6 phosphorylation and organoid survival; format: cell-based, mice; conditions: 5-FU
Experimental: Organoids were cultured in medium−/+doxycycline prior to the experiment. […] Organoids were cultured in medium−/+doxycycline prior to the experiment.
Colon tumor organoids were cultured as previously described (27). AOM/DSS induced colon tumors were harvested by opening the colon longitudinally and dissociated enzymatically for 30-40 min in digestion media containing 1 mg/ml collagenase I (Sigma-Aldrich), 0.5 mg/ml Dispase (Roche), 50 μg/ml DNase (Sigma-Aldrich) in RPMI medium containing 2% FCS. Supernatant was washed and filtered through a 70 μM cell strainer. Cells were then embedded in Matrigel (Corning, #356231) and cultured in Advanced Dulbecco's modified Eagle's medium/F12 (Invitrogen, #12634-028) supplemented with Glutamax (Invitrogen, #35050038), Hepes (Invitrogen, #15630056), Pen/Strep (Invitrogen, #15140122), N2 supplement (Invitrogen, #17502048), B27supplement (Invitrogen, #17504044) and n-Acetylcysteine (Sigma-Aldrich, #A91165). EGF (Invitrogen, #PMG8045), RspoI and noggin were added as niche factor.

[2] = system: human colon organoids derived from tumor tissue; test: ROS measurement with DCFDA in organoids; format: cell-based; conditions: 5-FU (20 μM, 20 h)
Experimental: (§1) Data are mean±SD, n=3. […] Data are mean±SD, n=3.
ATP level in organoid supernatant or necrotic medium was measured using the CellTiter-Glo 2.0 Cell Viability Assay (Promega #G9242) according to the manufacturers instruction. ROS levels were measured using H2DCFDA (ThermoFisher #D339). Briefly, organoids were treated as indicated with 5-FU, stained with H2DCFDA and then analyzed for H2DCFDA positivity using fluorescence microscopy or FACS.

[3] = system: S6 ribosomal protein phosphorylation (mTOR signaling); test: Immunoblot analysis of survival pathways / S6 phosphorylation in AOM/DSS tumor organoids; format: cell-based, mice; conditions: for ATP induced phosphorylation of S6: ATP (100 μM) in presence of inhibitor, AOM/DSS tumor organoids
Experimental: Data are mean±SD, n=7. *p<0.05 by two-tailed Student's t-test. c, Immunoblot analysis of Lgr5EGFP-DTR(−) tumor organoids treated with ATP (100 μM), 2MeS ADP (100 μM) and adenosine (100 μM) for 30 min. […] Data are mean±SD, n=4 replicates. […] Data are mean±SD, n=3 replicates. One representative of three experiment performed is shown. n.s. p>0,05, *p<0.05***, p<0.001, ****p<0.0001 by 1-way ANOVA with Bonferroni's multiple comparison test. 1, Immunoblot analysis of doxycycline inducible P2x4 knockdown APTAK colon tumor organoids treated with 5-FU (20 μM). Organoids were cultured in medium−/+doxycycline prior to the experiment. […] Organoids were cultured in medium−/+doxycycline prior to the experiment. […] Data are mean±SD, n=3.
In vitro Lgr5+ cells ablation experiments, organoids were treated with 20 ng/ml DT (Millipore, #322326) in the culture medium. For human LGR5+ cells ablation, we treated LGR5-iCT organoids with 500 nM BB homodimerizer. Other treatments were performed as described in each figure legends.

[4] = system: subcutaneous AOM/DSSATKN tumors; format: in vivo, NSG mice
[5] = system: subcutaneous APTAKshP2x4 tumors; test: Subcutaneous APTAKshP2x4 tumors, 5-FU/rapamycin with or without NAC; format: in vivo, mice; conditions: additional application of NAC (0,5% in drinking water)
Experimental: as §1
Organoids were collected using ice cold Cell Recovery Solution (Corning, #354253) and mechanically dissociated into small clusters. Dissociated organoid cells were resuspended in PBS, admixed with 50% Matrigel (Corning, #356231) in a final volume of 100 μl, and injected subcutaneously in the right flank of NSG mice. Tumor size was monitored with a digital caliper and tumor volumes were calculated according to the formula (length×width×width)/2. At the end of experiments mice were humanely euthanized to collect tumors.
DT (Millipore, #322326) treatment was performed as previously described (3, 4). Briefly, DT was injected intraperitonially at a dose of 50 μg/kg for the time indicated in individual experiments. mTOR inhibitor rapamycin (LC Labs, #-5000) was dissolved in 5% Ethanol, 5% PEG400 and 5% Tween 80 in PBS and injected i.p. at 10 mg/kg once a day for indicated time. 0.5% N-acetylcysteine (Sigma-Aldrich, #A91165) was applied ad libitum in drinking water. 0.5 mg/ml Doxycycline (Sigma #D9891) was applied ad libitum in drinking water containing 3% Sucrose. 5-FU (Sigma #F6627) was dissolved in sterile H2O and injected intraperitoneally for the time indicated in individual experiments at a concentration of 20 mg/kg.

[6] = system: Lgr5EGFP-DTR(+) tumor organoids; test: Tumor organoid survival / cell death upon treatment with or without DT; format: cell-based, mice
Description: Representative images are shown from at least three independent experiments. c, Average tumor size was counted on serial hematoxylin and eosin (H&E) stained sections on day 9 after 4 injections of either DT or vehicle. Data are mean±SD, n≥8/treatment. p>0.05 (n.s., not significant) by two-tailed Student's t-test. d, Immunohistochemical analysis and quantification of Lgr5-EGFP expression in GFP-stained colon tumor from Lgr5EGFP-DTR(+) mice on day 9 treated with DT as indicated in a). Representative images are shown (n≥8/treatment, scale bar=300 μm). […] Representative images are shown from four independent experiments (n=4/treatment, scale bar=200 μm). Data represent mean±SD, n=4/treatment. p>0.05 (n.s., not significant) by two-tailed Student's t-test. f, Flow cytometric analysis of Lgr5-EGFP+tumor cells from Lgr5EGFP-DTR(+) tumor organoids 24 h after DT treatment. Representative results are shown (n≥3). g, AOM/DSS colon tumor organoids from Lgr5EGFP-DTR(−) and Lgr5EGFP-DTR(+) mice were treated with DT (20 ng/ml) for 24 h. Representative images are shown from two independent experiments (scale bar=200 μm). h, Immunoblot analysis of Lgr5EGFP-DTR(+) and Lgr5EGFP-DTR(−) tumor organoids treated with DT for 24 h. […] 1, Control and raptor knockdown Lgr5EGFP-DTR(+) tumor organoids were passaged and counted after 72 h. […]

PC3 and C4-2B4 cells = conditions: selective P2XR4 antagonists; cited from earlier work
HCT-116 cells = conditions: combination of SAMC and rapamycin; cited from earlier work
[7] = system: S6 phosphorylation in intestinal epithelial cells (IEC); test: S6 phosphorylation in intestinal epithelial cells of wildtype mice; format: in vivo; conditions: azoxymethane (10 mg/kg single injection), untransformed wildtype mice
Experimental: as §1
Immunostaining was performed as previously described (35). Briefly, tissues were fixed with 4% paraformaldehyde. Six μm OCT frozen tissue sections or 5 μm paraffin-embedded tissue sections were processed for immunostaining using a standard histological protocol. Following primary antibodies were used: EGFP (Abcam, #ab6673), tdTomato (Rockland, #600-401-379), cleaved caspase 3 (Cell Signaling, #9579), Ki67 (Leica Bioststems, #NCL-L-Ki67-MM1), phospho-S6 (Cell Signaling, #2211),P2x4 (Abcam #134559). Sections were then incubated with HRPconjugated antibodies (Dako) and signal was detected with DAB reaction. For immunofluorescence staining after primary antibody incubation, sections were incubated with flourochrome-labelled secondary antibodies (Invitrogen) and sections were mounted with ProLong Gold Antifade Mountant with DAPI (Invitrogen, #P36931). Images were captured on a Zeiss microscope.

[8] = system: AOM/DSSATKN tumor organoids; conditions: for rescue of organoid reseeding capacity under 5-FU/rapamycin: inhibitor of potential proapoptotic DAMPs added to 5-FU (20 μM) plus rapamycin (10 μM), 48 hours, re-seeded 72 h
Description: Percentage of reseeding capacity compared to vehicle treated organoids is indicated. Data are mean±SD, n=4 replicates. […] Percentage of reseeding capacity compared to vehicle treated organoids is indicated.

[9] = system: refractory metastatic colorectal cancer / refractory solid tumors; conditions: further addition of panitumumab to everolimus + mFOLFOX6; cited from earlier work

O=c1[nH]cc(F)c(=O)[nH]1 [5-FU, 5-fluorouracil]
S6 phosphorylation ([1]; 5-FU (20 μM, 24 hours), AOM/DSS tumor tissues and tumor organoids): induced S6 phosphorylation
S6 phosphorylation (APTAK tumor organoids): led to mTOR dependent S6 phosphorylation
ROS levels (DCFDA) [2]: tumor organoid specific ROS increase
phosphorylation of S6 ([3]; 5-FU, absence of Lgr5+ cells (Noggin withdrawal)): able to induce phosphorylation of S6

Clc1cccc(-c2nnnn2Cc2cccnc2)c1Cl [A-438079]
ATP induced phosphorylation of S6 [3]: did not decrease ATP dependent S6 phosphorylation

Nc1ncnc2c1ncn2[C@@H]1O[C@H](COP(=O)(O)OP(=O)(O)OP(=O)(O)O)[C@@H](O)[C@H]1O [ATP, adenosine triphosphate]
phosphorylation of S6-ribosomal protein ([3]; Lgr5EGFP-DTR(−) tumor organoids, 100 μM, 30 min): induced phosphorylation of S6-ribosomal protein

CC(=O)N[C@@H](CS)C(=O)O [NAC, N-acetylcysteine]
DNA damage and apoptosis in tumor organoids ([1]; NAC (2 mM) in addition to DT and rapamycin, compared to DT/rapamycin alone): decreased DNA damage and apoptosis
apoptosis in tumor tissues (cleaved Caspase 3) ([4]; NAC (0,5% in drinking water) in DT/rapamycin treated animals): reduced apoptosis in tumor tissues
tumor regression in 5-FU/rapamycin treated mice [5]: revert tumor regression

O=C(Nc1ccc(C(=O)Nc2ccc(C(=O)Nc3ccc(S(=O)(=O)O)c4cc(S(=O)(=O)O)cc(S(=O)(=O)O)c34)cc2)cc1)Nc1ccc(C(=O)Nc2ccc(C(=O)Nc3ccc(S(=O)(=O)O)c4cc(S(=O)(=O)O)cc(S(=O)(=O)O)c34)cc2)cc1 [NF279]
ATP induced phosphorylation of S6 [3]: did not decrease ATP dependent S6 phosphorylation

CNC(=O)c1ccc(C)c(-n2c(C)cc(OCc3ccc(F)cc3F)c(Br)c2=O)c1 [PH797804]
tumor organoid survival ([6]; MAPK inhibitor (JNK or p38) in the presence or absence of DT): did not affect tumor organoid survival

Cc1nc(N=Nc2ccc(S(=O)(=O)O)cc2S(=O)(=O)O)c(COP(=O)(O)O)c(C=O)c1O [PPADS]
Lgr5+ cell death induced S6 phosphorylation ([3]; non-selective P2 receptor antagonists): blocked Lgr5+ cell death induced S6 phosphorylation

Cc1ccc(S(=O)(=O)N2c3ccccc3Oc3ccccc32)cc1 [PSB-12062]
growth, mobility and apoptosis of PCa cells (PC3 and C4-2B4 cells): impaired the growth and mobility of PCa cells but not apoptosis

C=CCSSC[C@H](N)C(=O)O [SAMC, S-allylmercapto-cysteine]
tumor suppression (HCT-116 cells): enhanced tumor-suppressing ability

CN=[N+](C)[O-] [azoxymethane]
S6 phosphorylation in IEC [7]: enhanced S6 phosphorylation in IEC

Nc1nc2c(ncn2[C@@H]2O[C@@H]3COP(=O)(O)O[C@H]4[C@@H](O)[C@H](n5cnc6c(N)ncnc65)O[C@@H]4COP(=O)(O)O[C@@H]2[C@@H]3O)c(=O)[nH]1 [cGAMP]
phosphorylation of S6-ribosomal protein ([3]; exogenous cGAMP): induced phosphorylation of S6-ribosomal protein in a dose dependent manner

NC(=O)c1ncn([C@@H]2O[C@H](CO)[C@@H](O)[C@H]2O)c1O [mizoribine]
organoid collapse ([6]; mizoribine in combination with DT-mediated depletion of Lgr5+ cells, ex vivo): profound organoid collapse
S6-ribosomal protein phosphorylation ([4]; mizoribine in combination with DT-mediated depletion of Lgr5+ cells): without affecting S6-ribosomal protein phosphorylation
viable proliferative tumor cells ([4]; mizoribine in combination with DT-mediated depletion of Lgr5+ cells, s.c. tumors): markedly reduced viable proliferative

COC(=O)C[C@H](NC(=O)[C@H](C)NC(=O)[C@@H](NC(=O)OCc1ccccc1)C(C)C)C(=O)CF [zVAD, carbobenzoxy-valyl-alanyl-aspartyl-[O-methyl]-fluoromethyl ketone] (Cbz-Val-Ala-Asp(OMe)-CH2F)
organoid survival under combined 5-FU/rapamycin treatment ([8]; apoptosis inhibitor zVAD (50 μM) added): rescued the negative effect of combined 5-FU/rapamycin treatment on organoid survival

Anakinra: IL-1 signaling inhibitor
rescue of organoid reseeding capacity under 5-FU/rapamycin [8]: only inhibition of ROS signaling by NAC was able to rescue

Apyrase
S6 phosphorylation induced by DT treatment or necrotic supernatant ([3]; Apyrase hydrolyzing released ATP): reduce the levels of S6 phosphorylation

Enbrel
rescue of organoid reseeding capacity under 5-FU/rapamycin [8]: only inhibition of ROS signaling by NAC was able to rescue

panitumumab: added to everolimus + mFOLFOX6 in phase I trial
toxicity [9]: unacceptable level of toxicity
